How the values were obtained:
[1] = tested on: cat flea (Ctenocephalides felis); experiment: Ctenocephalides felis adulticide assay: single dose screen on treated glass surface (% mortality at 1.26 μg/cm^2, 24 hours); type: in vivo; conditions: for Ctenocephalides felis Mortality (%) 24 h: in vivo; for mortality at 1.26 µg/cm2, 1.26 µg/cm2: Ctenocephalides felis, 24 h, read-out: Ctenocephalides felis Mortality (%) 24 h
Procedure: The LC50 value is the concentration, expressed as μg/cm^2, that was required to kill 50% of the sample of cat fleas on contact with the tested compound. Certain tests are also reported as the percent of a sample of cat fleas that were killed at a concentration of 1.26 μg/cm^2 (“% mortality”), for the compounds tested in this way.
b) Ctenocephalides felis Adulticide Assay: C.felis single dose screen
Mortality of fleas is the primary endpoint in the assay. […] The concentration chosen (1.26 μg/cm^2) is higher than that known to kill 90% of cat fleas (LC90) using the reference compound, permethrin.
The test species employed was the cat flea (Ctenocephalides felis). The strain used was obtained from external suppliers as pupae and held in the laboratory under testing conditions until the adults had emerged. Fifteen (15) fleas were used in a minimum of four replicates against a single concentration level (approximately 60 fleas). The insects were selected to be in the adult life stage, aged between 3 and 7 days post emergence.
The compounds to be tested were supplied as solids and were prepared in acetone as described below prior to testing. Samples were stored in a refrigerator (5±1° C.) unless otherwise specified.
During the mortality testing, the temperature was maintained at 25±1° C. Humidity was maintained at 75±5%. The base (area=159 mm^2) of a 100 mL glass Erlenmeyer (conical) flask provided the treatment surface. Flasks were pre-treated with Coatasil™ glass treatment to maximise bio-availability of test compounds by preventing them from binding to glass the surface. The base of the 100 mL Erlenmeyer flask was treated with 0.5 mL of test sample in acetone and gently swirled. This volume was sufficient to cover the base of the flask. Flasks were left to dry for 24 hours before flea exposure.
Adult cat fleas were placed into a sorting chamber, which allowed fleas to jump into the Erlenmeyer flasks. Fifteen (15) adult cat fleas were collected in each flask. The top of the flasks were then covered in Parafilm™ and small holes were made to allow gas exchange. A 0.5 mL volume of acetone as a solvent control was applied to the base of an Erlenmeyer flask and the testing proceeded in the same manner described above. […] Pooled 24 hour mortality data were converted to percentages and are summarized by Table 4, below.
(§1) In Table 7, provided below, are listed the Haemonchus contortus LD99 values (measured in micrograms/mL), the Ctenocephalides felis rapid screening values (measured in % mortality), the Ctenocephalides felis LC50 values (measured in micrograms/cm^2) and the Rhipicephalus sanguineus rapid screening values (measured in % mortality) for selected compounds in accordance with the present invention.

Haemonchus contortus = Haemonchus contortus larvacidal (larval development) assay, LD99; type: in vitro
Procedure: The LD99 value is the dose, expressed as […], that was required to kill 99% of a sample of Haemonchus contortus.
a) Haemonchus Contortus Larvacidal Assay:
The effect of compounds on larval development was determined in the assay described by Gill et al. [International Journal of Parasitology 25:463-470 (1995)]. Briefly, in this assay, nematode eggs are applied to the surface of an agar matrix containing the test compound and then allowed to develop through to the L3, infective stage (6 days). The wells for each dilution of every compound (from highest to lowest concentration) are inspected to determine the well number corresponding to the lowest concentration at which development is inhibited in 99% of the nematode larvae present (LD99). Because well numbers correspond to a two-fold serial dilution of each compound, a titre (dilution factor) is generated as 2^n−1, where n is the well number. By dividing the highest concentration tested by the titre an LD99 value can be obtained, representing the concentration required to inhibit development in 99% of the nematode larvae present. The compounds supplied as solid and viscous liquids are dissolved in DMSO. Twelve serial one-half dilutions in DMSO solution are prepared from the stock solution, each of which is then diluted 1/5 with water. Aliquots (10 μl) of each dilution are transferred to the bioassay plates to give a final concentration range of 0.024 to 50 μg/ml.
as §1

SMILES	Ctenocephalides felis Mortality (%) 24 h [1] [%]	Haemonchus contortus LD99 (Haemonchus contortus) [µg/mL]	mortality at 1.26 µg/cm2, 1.26 µg/cm2 [1] [%]
O=S(=O)(Nc1ccc(Cl)cc1[S+]([O-])c1ccc(Cl)cc1)C(F)(F)F (stereo not drawn) [Compound 23, N-[4-chloro-2-(4-(chlorophenyl)sulfinyl)phenyl]-1,1,1-trifluoromethanesulfonamide]	3	–	–
O=S(=O)(Nc1ccc(Oc2ccc(Cl)cc2Cl)cc1C(F)(F)F)C(F)(F)F [p6]	28	–	–
Cc1cccc(Oc2cc(Cl)ccc2NS(=O)(=O)C(F)(F)F)c1C [Compound 27]	59	14	–
O=S(=O)(Nc1ccc(Cl)cc1Oc1ccccc1-c1ccccc1)C(F)(F)F [Compound 74, N-[2-(Biphenyl-2-yloxy)-4-chlorophenyl]-1,1,1-trifluoromethanesulfonamide]	–	–	81
COCN(c1ccc(Oc2ccccc2)cc1)S(=O)(=O)C(F)(F)F [p4]	49	–	–
N#Cc1ccc(NS(=O)(=O)C(F)(F)F)c(Oc2ccc(Cl)cc2)c1 [Compound 51]	10	–	–
CC(C)(C)C(=O)OCN(c1ccc(Cl)cc1Oc1ccccc1F)S(=O)(=O)C(F)(F)F [Compound 88]	73	–	–
O=S(=O)(Nc1cccc(Cl)c1Oc1ccc(Cl)cc1Cl)C(F)(F)F [Compound 11]	20	2.5	–
O=S(=O)(Nc1ccc(Cl)cc1Oc1ccc(Oc2ccccc2)cc1)C(F)(F)F [Compound 47]	36	–	–
O=S(=O)(Nc1cccc(Oc2ccc(Cl)cc2Cl)c1)C(F)(F)F [Compound m6, N-[3-(2,4-dichlorophenoxy)phenyl]-1,1,1-trifuoromethanesulfonamide]	34	–	–
O=S(=O)(Nc1ccc(Cl)cc1Sc1ccccc1Cl)C(F)(F)F [Compound 62]	25	–	–
CC(C)(C)C(=O)OCN(c1ccc(Oc2ccccc2)cc1)S(=O)(=O)C(F)(F)F [p5]	54	–	–
O=S(=O)(Nc1cc(Cl)c(Cl)cc1Oc1ccc(Cl)cc1Cl)C(F)(F)F [Compound 13]	48	1.8	–
CC(C)(C)C(=O)OCN(c1cccc(Oc2ccccc2)c1)S(=O)(=O)C(F)(F)F [m5]	72	–	–
N#Cc1ccc(NS(=O)(=O)C(F)(F)F)c(Oc2ccc(Cl)cc2Cl)c1 [Compound 52]	23	–	–
O=S(=O)(N(Cc1ccccc1)c1ccc(Cl)cc1Oc1ccc(Cl)cc1Cl)C(F)(F)F [Compound 92, N-benzyl-N-[4-chloro-2-(2,4-dichlorophenoxy)phenyl]-1,1,1-trifluoromethanesulfonamide]	–	–	57
CCN(c1ccc(Cl)cc1Oc1ccccc1F)S(=O)(=O)C(F)(F)F [Compound 78]	80	–	–
O=S(=O)(Nc1cc(C(F)(F)F)ccc1Sc1ccccc1)C(F)(F)F [Compound 63]	10	–	–
COc1cccc(Oc2cc(Cl)ccc2NS(=O)(=O)C(F)(F)F)c1 [Compound 58]	87	–	–
O=S(=O)(Nc1cc(C(F)(F)F)ccc1Sc1ccccc1F)C(F)(F)F [Compound 66]	20	–	–
O=S(=O)(N(Cc1ccccc1)c1ccc(Cl)cc1Oc1ccccc1F)C(F)(F)F [Compound 81]	1	–	–
O=S(=O)(Nc1cc(C(F)(F)F)ccc1Sc1ccccc1Cl)C(F)(F)F [Compound 64]	14	–	–
O=S(=O)(Nc1ccc(Cl)cc1Oc1ccccc1)C(F)(F)F [Compound 40]	39	–	–
COCN(c1ccc(Cl)cc1Oc1ccccc1F)S(=O)(=O)C(F)(F)F [Compound 79]	60	–	–
O=S(=O)(Nc1ccc(Oc2ccccc2)cc1)C(F)(F)F [p1]	84	–	–
CCOCN(c1ccc(Cl)cc1Oc1ccccc1F)S(=O)(=O)C(F)(F)F [Compound 80]	9	–	–

SMILES	Ctenocephalides felis Mortality (%) 24 h [1] [%]	Haemonchus contortus LD99 (Haemonchus contortus) [µg/mL]	mortality at 1.26 µg/cm2, 1.26 µg/cm2 [1] [%]
O=S(=O)(Nc1ccc(Oc2ccc(Cl)cc2Cl)c(F)c1)C(F)(F)F [p8]	4	–	–
N#Cc1ccc(Oc2cc(Cl)ccc2NS(=O)(=O)C(F)(F)F)cc1 [Compound 56]	6	–	–
CCCC(=O)OCN(c1ccc(Cl)cc1Oc1ccccc1F)S(=O)(=O)C(F)(F)F [Compound 89]	6	–	–
COc1ccc(Oc2cc(Cl)ccc2NS(=O)(=O)C(F)(F)F)cc1 [Compound 49]	24	–	–
N#Cc1ccc(NS(=O)(=O)C(F)(F)F)c(Oc2ccccc2F)c1 [Compound 53]	9	–	–
CC(C)(C)c1ccccc1Oc1cc(Cl)ccc1NS(=O)(=O)C(F)(F)F [Compound 42]	88	–	–
O=S(=O)(Nc1ccc(Cl)cc1Oc1cc(Cl)ccc1Cl)C(F)(F)F [Compound 69]	58	–	–
CC(C)c1ccccc1Oc1cc(Cl)ccc1NS(=O)(=O)C(F)(F)F [Compound 39]	75	–	–
CC(C)N(c1ccc(Cl)cc1Oc1ccccc1F)S(=O)(=O)C(F)(F)F [Compound 87]	24	–	–
O=S(=O)(Nc1ccc(Cl)cc1Nc1ccc(Cl)cc1)C(F)(F)F [Compound 91, N-[4-Chloro-2-(4-chlorophenylamino)-phenyl]-1,1,1-trifluoromethanesulphonamide]	–	–	13
CCOCN(c1ccc(Oc2ccccc2)cc1)S(=O)(=O)C(F)(F)F [p3]	72	–	–
CN(c1cccc(Oc2ccccc2)c1)S(=O)(=O)C(F)(F)F [m2]	88	–	–
O=S(=O)(Nc1cc(C(F)(F)F)ccc1Sc1ccc(Br)cc1)C(F)(F)F [Compound 67]	5	–	–
CCOCN(c1cccc(Oc2ccc(Cl)cc2Cl)c1)S(=O)(=O)C(F)(F)F [Compound m7, N-Ethoxymethyl-N-[3-(2,4-dichlorophenoxy)phenyl]-1,1,1-trifluoromethanesulfonamide]	–	–	5
N#Cc1ccc(NS(=O)(=O)C(F)(F)F)c(Oc2ccc(F)c(F)c2)c1 [Compound 57]	2	–	–
O=S(=O)(Nc1ccc(Oc2ccc(Cl)cc2Cl)c(Cl)c1)C(F)(F)F [Compound p7, N-[3-Chloro-4-(2,4-dichlorophenoxy)phenyl]-1,1,1-trifluoromethanesulfonamide]	–	–	22
Cc1ccccc1Oc1cc(C#N)ccc1NS(=O)(=O)C(F)(F)F [Compound 54]	5	–	–
CC(C)N(c1ccc(Cl)cc1Oc1ccc(Cl)cc1Cl)S(=O)(=O)C(F)(F)F [Compound 86]	66	–	–
CN(c1ccc(Oc2ccccc2)cc1)S(=O)(=O)C(F)(F)F [p2]	64	–	–
CN(c1ccc(Cl)cc1Oc1ccccc1F)S(=O)(=O)C(F)(F)F [Compound 77]	20	–	–
N#Cc1ccc(NS(=O)(=O)C(F)(F)F)c(Oc2cccc(C(F)(F)F)c2)c1 [Compound 60]	5	–	–
O=S(=O)(Nc1cc(C(F)(F)F)ccc1Sc1ccc(F)cc1)C(F)(F)F [Compound 65]	21	–	–
CCN(c1ccc(Cl)cc1Oc1ccc(Cl)cc1Cl)S(=O)(=O)C(F)(F)F [Compound 76]	3	–	–
O=S(=O)(Nc1ccc(Oc2ccc(Cl)cc2Cl)c(C(F)(F)F)c1)C(F)(F)F [p9]	44	–	–
N#Cc1cccc(Oc2cc(Cl)ccc2NS(=O)(=O)C(F)(F)F)c1 [Compound 50]	14	–	–

— patent publication US20060281695A1, “Control of parasites in animals by N-[(phenyloxy)phenyl]-1,1,1-trifluoromethanesulfonamide and N-[(phenylsulfanyl)phenyl]-1,1,1-trifluoromethanesulfonamide derivatives” (priority 2005, published 2006)
